Measured values as given in PubChem BioAssay (NCI).
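Results reflect a 48-hour exposure of cells in 96-well plates to compound at five concentrations. GI50 marks 50% less growth. Definition used: TGI = concentration required for complete inhibition of growth.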

Key:
Assay in all cases: inhibition of tumour cell growth, NCI panel, 48 h
[1] = test system: OVCAR-5 ovarian
[2] = test system: U251 CNS
[3] = test system: OVCAR-4 ovarian
[4] = test system: OVCAR-8 ovarian
[5] = test system: NCI-H23 lung
[6] = test system: MCF7 breast
[7] = test system: EKVX NSCLC
[8] = test system: UACC-257 melanoma
[9] = test system: BT-549 breast
[10] = test system: HL-60(TB) leukemia
[11] = test system: MDA-MB-231 breast
[12] = test system: SF-295 CNS
[13] = test system: LOX IMVI melanoma
[14] = test system: CCRF-CEM leukemia
[15] = test system: MDA-MB-435
[16] = test system: NCI-H522 lung
[17] = test system: HCT-15 colon
[18] = test system: A498 renal
[19] = test system: MDA-MB-468 breast
[20] = test system: UACC-62 melanoma
[21] = test system: NCI/ADR-RES ovarian
[22] = test system: MOLT-4 leukemia
[23] = test system: SK-MEL-2 melanoma
[24] = test system: KM12 colon
[25] = test system: K-562 leukemia
[26] = test system: SK-MEL-28 melanoma
[27] = test system: SN12C renal
[28] = test system: HOP-92 NSCLC
[29] = test system: M14 melanoma
[30] = test system: SNB-19 CNS
[31] = test system: A549 NSCLC
[32] = test system: RPMI-8226 leukemia
[33] = test system: NCI-H226 lung
[34] = test system: OVCAR-3 ovarian
[35] = test system: ACHN renal
[36] = test system: DU-145 prostate
[37] = test system: SF-268 CNS
[38] = test system: IGROV1 ovarian
[39] = test system: COLO 205 colon
[40] = test system: CAKI-1 renal
[41] = test system: NCI-H460 lung
[42] = test system: SW-620 colon
[43] = test system: SF-539 CNS
[44] = test system: SK-OV-3 ovarian
[45] = test system: SNB-75 CNS
[46] = test system: SR leukemia
[47] = test system: HCC-2998 colon
[48] = test system: TK-10 renal
[49] = test system: MALME-3M melanoma
[50] = test system: HCT-116 colon
[51] = test system: PC-3 prostate
[52] = test system: SK-MEL-5 melanoma
[53] = test system: 786-0 renal
[54] = test system: HOP-62 NSCLC
[55] = test system: HT29 colon
[56] = test system: UO-31 renal
[57] = test system: T-47D breast

COc1cc(/C=C/C(=O)c2cc(OC)c(OC)c(OC)c2)ccc1Oc1nc(Nc2ccc(F)cc2)nc(N(C)C)n1
GI50 [1]: 1480 nM
TGI [1]: 3.89 µM
GI50 [2]: 503 nM
TGI [2]: 2430 nM
GI50 [3]: 2070 nM
TGI [3]: 10.6 µM
GI50 [4]: 1550 nM
TGI [4]: 6.57 µM
GI50 [5]: 1630 nM
TGI [5]: 3.63 µM
GI50 [6]: 1060 nM
TGI [6]: 4.07 µM
GI50 [7]: 2150 nM
TGI [7]: 9.12 µM
GI50 [8]: 2830 nM
TGI [8]: 12.6 µM
GI50 [9]: 1560 nM
TGI [9]: 3.2 µM
GI50 [10]: 2210 nM
TGI [10]: 8.24 µM
GI50 [11]: 1480 nM
TGI [11]: 3.58 µM
GI50 [12]: 1980 nM
TGI [12]: 5.49 µM
GI50 [13]: 478 nM
TGI [13]: 1690 nM
GI50 [14]: 2190 nM
TGI [14]: > 100 µM
GI50 [15]: 1630 nM
TGI [15]: 3.54 µM
GI50 [16]: 1470 nM
TGI [16]: 3.24 µM
GI50 [17]: 1180 nM
TGI [17]: 2750 nM
GI50 [18]: 3.99 µM
TGI [18]: 15.2 µM
GI50 [19]: 1350 nM
TGI [19]: 3.51 µM
GI50 [20]: 1410 nM
TGI [20]: 3 µM
GI50 [21]: 1420 nM
TGI [21]: 3.39 µM
GI50 [22]: 472 nM
TGI [22]: > 100 µM
GI50 [23]: 1690 nM
TGI [23]: 3.79 µM
GI50 [24]: 3.63 µM
TGI [24]: 88.6 µM
GI50 [25]: 1400 nM
TGI [25]: > 100 µM
GI50 [26]: 1800 nM
TGI [26]: 4.07 µM
GI50 [27]: 1230 nM
TGI [27]: 2730 nM
GI50 [28]: 1670 nM
TGI [28]: 6.72 µM
GI50 [29]: 2830 nM
TGI [29]: 10.8 µM
GI50 [30]: 1860 nM
TGI [30]: 4.58 µM
GI50 [31]: 4.49 µM
TGI [31]: 19.2 µM
GI50 [32]: 751 nM
TGI [32]: 5.21 µM
GI50 [33]: 1440 nM
TGI [33]: 3.23 µM
GI50 [34]: 2570 nM
TGI [34]: > 100 µM
GI50 [35]: 2300 nM
TGI [35]: 7.48 µM
GI50 [36]: 3.99 µM
TGI [36]: 18.7 µM
GI50 [37]: 3.43 µM
TGI [37]: > 100 µM
GI50 [38]: 1930 nM
TGI [38]: 4.49 µM
GI50 [39]: 4.45 µM
TGI [39]: 16.8 µM
GI50 [40]: 1980 nM
TGI [40]: 6.67 µM
GI50 [41]: 1450 nM
TGI [41]: 3.3 µM
GI50 [42]: 1550 nM
TGI [42]: 3.27 µM
GI50 [43]: 1640 nM
TGI [43]: 3.09 µM
GI50 [44]: 8.42 µM
TGI [44]: 29.9 µM
GI50 [45]: 2540 nM
TGI [45]: 21.1 µM
GI50 [46]: 700 nM
TGI [46]: > 100 µM
GI50 [47]: 2030 nM
TGI [47]: 4.16 µM
GI50 [48]: 2530 nM
TGI [48]: 7.3 µM
GI50 [49]: 1750 nM
TGI [49]: 4.21 µM
GI50 [50]: 1400 nM
TGI [50]: 3.18 µM
GI50 [51]: 2770 nM
TGI [51]: 30.9 µM
GI50 [52]: 2160 nM
TGI [52]: 4.83 µM
GI50 [53]: 1450 nM
TGI [53]: 3.23 µM
GI50 [54]: 1830 nM
TGI [54]: 3.88 µM
GI50 [55]: 1540 nM
TGI [55]: 3.55 µM
GI50 [56]: 1120 nM
TGI [56]: 2360 nM
GI50 [57]: 1870 nM
TGI [57]: 56.1 µM
